According to US20170058348A1, “Predictive mRNA Biomarkers for the Prediction of the Treatment with Methotrexate (MTX)” (Charité - Universitätsmedizin Berlin, priority 2014, published 2017):
Several values for one entry are separate records, joined by “and”; a condition that tells them apart may be missing. Equal values may be shown once.

What was measured:
[1] = system: patients with a clinically confirmed RA; experiment: Clinical response to MTX therapy in RA patients (DAS28, EULAR criteria); assay type: in vivo, human; settings: Health Assessment Questionnaire; one line per individual RA patient; during MTX treatment
Method: […] patients with a clinically confirmed RA were examined in the series of tests for the identification and definition of biomarkers for therapy prediction with MTX. In this regard, 5 ml of whole blood was taken from the patients in 2 PAXgene tubes (PreAnalytiX, Hombrechtikon, Switzerland) and turned for 24 hours on an overhead roller at 20° C. (20 rpm); afterwards, they were frozen at −20° C. until worked up. The patient samples were acquired in the context of two clinical studies under standard conditions (HitHard study; n=29; own clinical study; n=22) and after authorization by the ethics commission of the charity, as well as the agreement of the patients. The clinical data, prior to MTX therapy and over the course of >1 year, were stored in the context of the study conditions in a clinical database in accordance with ISO 9001 standard guidelines. The calculation of the assessment of the MTX response before and during the therapy periods was carried out in accordance with the guidelines from the European League Against Rheumatism (ELUAR) using the “Disease Activity Score” considering 28 joints (DAS28; (van Gestel et al, 1999)). The MTX therapy response was classified, in accordance with the guidelines, into the following three groups: responders (R), moderate responders (MR) and non-responders (NR). […]

RA patients = settings: after a year (Furst 1996); cited from earlier work

For CN(Cc1cnc2nc(N)nc(N)c2n1)c1ccc(C(=O)N[C@@H](CCC(=O)O)C(=O)O)cc1 [MTX, methotrexate], the HAQ [1] is listed as 0.6 (2×) and 0.8 and 1.3 (3×) and 0.3 (3×) and 0.0 (3×) and 0.1 (4×) and 1.0 (2×) and 0.5 (2×) and 0.75 and 1.1 (3×) and 0.4 and 1.4 and 0.9 and 1.5 and 1.9 and 2.3 and the sustained success rates (RA patients) is listed as 40-50%.
